Measured values from ChEMBL document CHEMBL4359885, “Novel multi target-directed ligands targeting 5-HT4 receptors with in cellulo antioxidant properties as promising leads in Alzheimer's disease” (Eur J Med Chem, 2019).
Calls of active or inactive are those of the source. The calls are words filed in the database; no cut-off is given here.

Assays:
[1] = system: SH-SY5Y; assay: Antioxidant activity in human SH-SY5Y cells assessed as inhibition of t-BuOOH-induced intracellular oxidative stress by measuring ROS level at 10 uM preincubated for 24 hrs followed by t-BuOOH addition and measured after 30 mins by DCFH-DA dye-based fluorescence assay relative to control; format: functional
[2] = molecular target: T1, 5-hydroxytryptamine receptor 4 (Homo sapiens, UniProt Q13639); assay: Binding affinity to recombinant human brain 5HT4 receptor by radio ligand binding assay
T1 sequence (Q13639 whole entry): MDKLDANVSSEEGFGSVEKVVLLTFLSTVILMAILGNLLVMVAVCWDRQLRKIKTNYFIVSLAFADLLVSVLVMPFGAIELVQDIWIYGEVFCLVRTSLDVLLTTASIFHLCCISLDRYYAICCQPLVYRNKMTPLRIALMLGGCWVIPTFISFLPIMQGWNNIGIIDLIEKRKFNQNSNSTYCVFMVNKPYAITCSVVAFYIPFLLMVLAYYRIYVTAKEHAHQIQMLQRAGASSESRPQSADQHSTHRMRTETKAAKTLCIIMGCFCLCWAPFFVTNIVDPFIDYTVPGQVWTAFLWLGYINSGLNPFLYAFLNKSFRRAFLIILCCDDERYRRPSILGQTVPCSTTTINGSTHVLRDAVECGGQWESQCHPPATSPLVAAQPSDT

[3] = Antioxidant activity assessed as […] radical scavenging activity preincubated for 30 mins followed by AAPH addition and measured every minute for 2 hrs by ORAC fluorescein assay relative to trolox; format: functional
[4] = molecular target: T1, 5-hydroxytryptamine receptor 4; assay: Partial agonist activity at human HA-tagged 5HT4 receptor expressed in COS7 cells assessed as induction of cAMP production measured after 10 mins by HTRF assay; format: functional, cell-based
[5] = molecular target: T1, 5-hydroxytryptamine receptor 4; assay: Displacement of [3H]-GR 113808 from recombinant human brain 5HT4 receptor at 10^-8 M measured after 60 mins by radio ligand binding assay relative to control
[6] = system: SH-SY5Y; assay: Cytotoxicity against human SH-SY5Y cells assessed as reduction in cell viability at 50 uM measured after 24 hrs by MTT assay relative to control; format: cell-based
[7] = system: SH-SY5Y; assay: Cytotoxicity against human SH-SY5Y cells assessed as reduction in cell viability at 0.5 to 10 uM measured after 24 hrs by MTT assay; format: cell-based
[8] = molecular target: T1, 5-hydroxytryptamine receptor 4; assay: Agonist activity at human HA-tagged 5HT4 receptor expressed in COS7 cells assessed as induction of cAMP production measured after 10 mins by HTRF assay relative to control; format: functional, cell-based
[9] = molecular target: T1, 5-hydroxytryptamine receptor 4; assay: Displacement of [3H]-GR 113808 from recombinant human brain 5HT4 receptor measured after 60 mins by radio ligand binding assay
[10] = Antioxidant activity assessed as DPPH radical scavenging activity measured after 120 mins; format: functional
[11] = molecular target: T1, 5-hydroxytryptamine receptor 4; assay: Displacement of [3H]-GR 113808 from recombinant human brain 5HT4 receptor at 10^-6 M measured after 60 mins by radio ligand binding assay relative to control
[12] = molecular target: Acetylcholinesterase (Homo sapiens, UniProt P22303); assay: Inhibition of human erythrocytes AChE assessed as reduction in 5-thio-2-nitrobenzoate anion formation using acetylthiocholine iodide as substrate preincubated for 5 mins followed by substrate addition by Ellman's method
Chain of Acetylcholinesterase (P22303 whole entry): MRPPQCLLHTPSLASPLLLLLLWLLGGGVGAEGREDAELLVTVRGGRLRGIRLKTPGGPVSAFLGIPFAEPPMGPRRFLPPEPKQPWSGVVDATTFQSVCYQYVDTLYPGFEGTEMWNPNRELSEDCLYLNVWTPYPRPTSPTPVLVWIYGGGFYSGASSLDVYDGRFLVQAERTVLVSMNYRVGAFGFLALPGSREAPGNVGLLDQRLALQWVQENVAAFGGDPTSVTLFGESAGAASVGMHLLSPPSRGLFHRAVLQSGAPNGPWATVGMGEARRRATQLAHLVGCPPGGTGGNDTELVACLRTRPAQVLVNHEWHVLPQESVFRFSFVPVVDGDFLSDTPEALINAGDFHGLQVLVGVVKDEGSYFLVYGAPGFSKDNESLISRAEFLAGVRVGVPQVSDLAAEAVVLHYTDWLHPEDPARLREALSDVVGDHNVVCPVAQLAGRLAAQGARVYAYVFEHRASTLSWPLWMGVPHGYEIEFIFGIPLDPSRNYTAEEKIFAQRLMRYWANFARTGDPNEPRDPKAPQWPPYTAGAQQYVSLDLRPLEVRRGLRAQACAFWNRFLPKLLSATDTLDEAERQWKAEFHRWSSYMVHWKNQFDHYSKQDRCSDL

[13] = system: SH-SY5Y; assay: Cytotoxicity against human SH-SY5Y cells assessed as reduction in cell viability at 0.5 to 10 uM after 24 hrs by MTT assay relative to control; format: cell-based
[14] = system: SH-SY5Y; assay: Antioxidant activity in human SH-SY5Y cells assessed as inhibition of t-BuOOH-induced intracellular oxidative stress by measuring ROS level at 100 uM preincubated for 24 hrs followed by t-BuOOH addition and measured after 30 mins by DCFH-DA dye-based fluorescence assay; format: functional, cell-based

Structure (SMILES)	inhibition at 10 µM [1] [%]	Ki [2] [nM]	fold change (FC) [3]	EC50 [4] [nM]	inhibition [5] [%]	Activity [6] [%]	Activity [7]	Emax [8] [%]	IC50 [9] [nM]	EC50 [10] [nM]	inhibition [11] [%]	inhibition [1]	IC50 [12] [nM]	Activity [13] [%]	inhibition [14]
COc1ccc(CN2CCC(CCC(=O)c3cc(Cl)c(N)cc3OC)CC2)cc1O	50	12.7	3.41	1.4	64	40	Non-Toxic	57	14.5	85500	100	–	–	–	–
COc1cc(N)c(Cl)cc1C(=O)CCC1CCN(CCNC(=O)CCCC[C@@H]2CCSS2)CC1	–	–	0.76	–	26	48	Non-Toxic	–	–	> 250000	99	inactive	–	–	–
COc1cc(N)c(Cl)cc1C(=O)CCC1CCN(Cc2ccc(O)c(O)c2)CC1	50	5.9	3.4	2.8	76	37	Non-Toxic	72	7.5	19600	100	–	138	–	–
COc1ccc(CN2CCC(CCC(=O)c3cc(Cl)c(N)cc3OC)CC2)cc1OCc1ccccc1	–	–	< 0.2	–	7	–	–	–	–	> 250000	88	–	–	–	–
O=c1c(O)c(-c2ccc(O)c(O)c2)oc2cc(O)cc(O)c12 [QUERCETIN]	–	–	6.5	–	–	–	–	–	–	9300	–	–	–	–	–
COc1cc(N)c(Cl)cc1C(=O)CCC1CCN(Cc2ccc(OCc3ccccc3)c(OCc3ccccc3)c2)CC1	–	–	< 0.2	–	3	–	–	–	–	> 250000	89	–	–	–	–
COc1cc(/C=C/C(=O)NCCN2CCC(CCC(=O)c3cc(Cl)c(N)cc3OC)CC2)ccc1O	50	101	1.47	4.5	39	68	–	47	101	45500	100	–	–	12	–
Cc1c(C)c2c(c(C)c1O)CCC(C)(C(=O)O)O2 (stereo not drawn) [TROLOX]	–	–	–	–	–	–	–	–	–	22900	–	–	–	–	Active
COc1cc(CN2CCC(CCC(=O)c3cc(Cl)c(N)cc3OC)CC2)ccc1O	–	–	3.88	–	7	–	–	–	–	180000	95	–	535	–	–
COc1cc(CN2CCC(CCC(=O)c3cc(Cl)c(N)cc3OC)CC2)ccc1OCc1ccccc1	–	–	< 0.2	–	0	–	–	–	–	> 250000	97	–	–	–	–
COc1cc(N)c(Cl)cc1C(=O)CCC1CCN(Cc2ccc3c(c2)OCO3)CC1	–	–	< 0.2	–	22	–	–	–	–	> 250000	100	–	–	–	–
NCCc1c[nH]c2ccc(O)cc12	–	–	–	–	0	–	–	–	–	–	65	–	–	–	–
